≈ marks a conversion by molar mass, not a printed value.
Experiments:
[1] = system: HSV-1; assay: HSV-1 viral yield inhibition by combined drug exposure; format: cell-based; conditions: HSV-1, FIG. 34A
Excerpt: With either drug alone, a maximum decrease in viral yield was slightly less than three logs (orders of magnitude).
Two days later, the medium was removed.

[2] = system: HSV-1 KOS; assay: Inhibition of viral yield, wild type HSV-1 KOS; conditions: Human alphaherpesvirus 1, HeLa, read-out: ID90
Method: (§13) These compounds tested were the nucleoside analogs acyclovir (ACV), ganciclovir (DHPG), phosphonoformate (PFA), and phosphomethoxyethyladenine (PMEA). Inhibition of viral yield was determined, as above, by infecting Hela cells in the presence of wild type or drug-resistant strains of HSV-1 or HSV-2, and serial dilutions of a selected anti-viral compound, and infecting Vero cells with serial dilutions of the Hela cell lysate, as above.
(§14) The KOS (HSV-1) and 333 (HSV-2) are wild type viruses; the KOS(PMEA)' and KOS(PFA)' are drug-resistant HSV-1 strains having a DNA polymerase mutation. The 333(DHPG) strain is a drug-resistantHSV-2 strain having a thymidine kinase mutation.
(§15) The following strains of HSV-1 and HSV-2 virus were used: KOS, a wild type HSV-1 virus; KOS (PMEA) and KOS (PFA), both drug-resistant HSV-1 viruses having a DNA polymerase mutation; 333, a wild type HSV-2 HSV-2 virus, and 333 (DHPG), a drug-resistant HSV-2 virus having a thymidine kinase mutation.
(§16) After growth at 37° C. for 24 hours in 2 ml of RPMI-1640 containing 2% FCS and penicillin and streptomycin (P/S), the cells were frozen at -70° C. until the time for titration. The cells were freeze/thawed 3 times to release virus from the cells, serially diluted 10 fold, and the serial dilutions were added to Vero cells in culture. After 2 hours incubation at 37° C. the virus was removed and 0.5 ml methycellulose (4K cps) in RPMI-1640 and 2% FCS+P/S was added. Two days later, the medium was removed. The cells were stained in 0.8% crystal violet in 50% ethanol. The plaques formed were counted and the titer was calculated from the fold of dilutions. From the drug dose response, the concentration of each drug required to effect a 90% inhibition of virus yield, the IC90 concentration was determined.

[3] = system: HSV-2 333; assay: Inhibition of viral yield, wild type HSV-2 333; conditions: Human alphaherpesvirus 2, HeLa, read-out: ID90
[4] = system: HSV-1 KOS (PFA)'; assay: Inhibition of viral yield, drug-resistant HSV-1 KOS(PFA)'; conditions: Human alphaherpesvirus 1, HeLa, read-out: ID90
[5] = system: HSV-1 KOS(PMEA)'; assay: Inhibition of viral yield, drug-resistant HSV-1 KOS(PMEA)'; conditions: Human alphaherpesvirus 1, HeLa, read-out: ID90
Method: as §13, §14, §15, §16

[6] = system: HSV-2 333 (DHPG)'; assay: Inhibition of viral yield, drug-resistant HSV-2 333(DHPG)'; conditions: Human alphaherpesvirus 2, HeLa, read-out: ID90
Method: as §13, §14, §15, §16

[7] = system: HSV-2; assay: Topical treatment of genital HSV-2 infection, guinea pigs, first study; conditions: 5%
Method: Briefly, female guinea pigs were infected intravaginally with HSV-2, then treated topically three times daily beginning 6 hours or 48 hours after inoculation with HSV-2, as described in Example 13. […] Swabs of vaginal secretion were obtained and assayed for viral activity by a standard CPE assay. The severity of genital lesions was scored on a 0-5+ scale through the period of primary infection (21 days).
(§17) The MS strain of HSV-2 was utilized for the experimental animal infection. Female Hartley strain guinea pigs (Charles River Breeding Laboratories, Kingston, NY) weighing 250-300 g were inoculated intravaginally with 2.0×10^5 plaque-forming units of HSV-2 one hour after being swabbed for removal of vaginal secretions.
In the first study, groups of 10 guinea pigs were treated topically (0.1 ml intravaginally +0.1 ml on external genital skin) three times daily (approximately every eight hours) for seven days beginning 6 h or 48 h after inoculation with HSV-2.
To determine the effect of treatment on vaginal viral replication, swabs of vaginal secretions were obtained on days 1, 3, 5, 7 and 10 after HSV inoculation, placed in a tube containing 2.0 ml of media, vortexed and frozen at -70° C. until titrated for HSV-2. When all samples were collected, they were thawed, diluted serially and HSV-2 titers determined using rabbit kidney cells in a microtiter CPE assay.
(§18) To determine the effect of therapy on the development and spread of external genital lesions, lesion severity was scored on a 0-5+ scale through the primary infection period (19-21 days). Lesion score-day areas and virus titer-day areas under the curve, and peak lesion scores and peak virus titers between untreated and placebo-treated or placebo-treated and drug-treated animals were compared using the Mann-Whitney U range sum test. A p-value of 0.05 or less was considered significant.

[8] = system: HSV-2; assay: Topical treatment of genital HSV-2 infection, guinea pigs, second study
Method: In another study using the guinea pig genital model described above, animals were infected with HSV-2, then treated with KY-1 or Y-1 topically at concentrations of 2% or 5% drug. […] Animals were treated and scored daily for severity of infection for 19 days.
as §17
Formulations of KY-1 or Y-1 were prepared by dissolving the compound in a 1.5% methyl cellulose solution such that final concentration of compound was 2% or 5% (wt/wt). Control animals were given either no treatment (N=10 animals) or treatment with placebo (1.5% methylcellulose solution).
as §18
Animals were scored daily for 19 days following inoculation for presence of lesions and severity of lesions (on a 0-5+ point scale). Lesion scores were tabulated as area under the curve of daily lesion score vs. time (days) and peak lesion score observed. A known antiviral agent, acyclovir (ACV) was administered in a 5% formulation to 8 animals as a positive control in the study.

[9] = system: HSV-1; assay: Plaque reduction assay, HSV-1, Vero cells; format: cell-based, HSV-1 (Kos-1)
Method: (§1) used in Table 3 were further tested for activity against HSV infection in
(§2) a plaque reduction assay, as detailed in Example 6. Here Vero cells, after
(§3) overnight incubation, were exposed to serial dilutions of KY compound,
(§4) from 0.625-10 μg/ml, and HSV-1 or HSV-2 virus for two hours. After
(§5) washing to remove drug and extracellular virus, the cells were further
(§6) incubated for 2 days, then stained and counted for plaque formation.
(§7) Percent inhibition was determined by dividing plaques produced by total
(§8) number of plaques in infected, untreated controls. From the concentration
(§9) effect curve of plaque inhibition (expressed as percent of control), the
(§10) concentration of compound required to produce 50% plaque reduction,
(§11) IC50, was determined. The IC50 values for infection by HSV-1 and
(§12) HSV-2 infection is given in the right-hand columns in Table 3. With

[10] = system: HSV-2; assay: Plaque reduction assay, HSV-2, Vero cells; format: cell-based, HSV-2 (333); conditions: Human alphaherpesvirus 2, Vero
Method: as §1, §2, §3, §4, §5, §6, §7, §8, §9, §10, §11, §12

[11] = system: HSV-1; assay: Topical treatment of ocular HSV-1 infection, rabbits
Method: New Zealand white rabbits were acclimated for a minimum of two days prior to inoculation to allow the animals to accommodate to conditions in the vivarium facility. After the accommodation period, animals received a slit lamp ocular examination to exclude any animals with preexisting anterior segment ocular defects. Animals were bilaterally inoculated topically with an 80 μl drop of Minimal Essential Medium (MEM; Gibco) containing 10^5 pfu/ml McKrae strain HSV-1; eyes were massaged for 30 seconds. Animals were replaced individually in cages.
On day 4 post inoculation (PI), animals were evaluated by slit lamp microscopy. Corneal epithelial, iris, and conjunctival disease were graded on an increasing scale of severity from 0+ to 4+. After evaluation, animals were divided into 4 groups of 5 animals with matched corneal, stromal and conjunctival involvement. Topical therapy was initiated immediately after animal grouping. Therapy groups included:
Group #1: 5 rabbits, Y-1 topical therapy (6.25 μg/50 μl) 5×/dayfor 4 days;
Group #2: 5 rabbits, Y-1 topical therapy (12.5 μg/50 μl) 5×/dayfor 4 days;
Group #3: 5 rabbits, Y-1 topical therapy (18.75 μg/50 μl) 5×/day for 4 days;
Group #4: 5 rabbits, placebo therapy (sterile water) 5×/day for 5 days.
All Y-1 doses were formulated to contain these concentrations in a volume of 50 μl (a standard eye drop).
Topical therapy with 0-19 μg Y-1 in 50 μl was initiated on day 4 post-inoculation (PI) and continued to day 7 PI. All animals received daily ocular slit lamp evaluations from day 3 through day 7 PI. The ocular HSV-1 induced disease severity was recorded daily.
Eyes of all animals were additionally sampled for the presence of infectious HSV-1 on days 0 (pre-inoculation), 3, 5, and 7 PI. Briefly, tear film was obtained by swabbing the lower and upper conjunctival sacs and retaining the swab in the nasal fornix for 10 seconds. The swabs were eluted individually in Hank's Buffered Saline (HBSS, Gibco Laboratories). Fifty microliter aliquots of the virus-HBSS eluate was adsorbed onto confluent HFF cell monolayers for 5 minutes. Monolayers were hydrated with Minimal Essential Medium (MEM; Gibco Laboratories), incubated at 37° C. and observed daily for two weeks to detect cytopathology consistent with HSV infection (HSV CPE).
On day 7 PI (sacrifice), the corneal epithelium was scraped from the eyes and HSV was recovered on HFF cell monolayers. Corneal epithelial co-cultures were evaluated daily by inverted light microscopy.

[12] = system: HIV-HXB; assay: Inhibition of syncytia formation, HIV-HXB (HTLV-IIIB)
Method: Briefly, cells chronically infected with HTLV-IIIB or RF-II HIV strains were incubated in the presence of serial dilutions of the selected KY compound, then further cocultured with indicator cells. The extent of syncytia formation was scored under phase microscopy.
Representative calix(n)arene compounds from Table 2 were tested for inhibition of cytopathic effects in cells infected with one of two HTLV-III strains, HTLV-IIIB and RF-II strains, as described in Example 12, and in the subsection above.
Human CD4^+ indicator cells (VB) and chronically infected H9 cells were maintained in RPMI-1640 medium supplemented with 5% fetal calf serum, 100 Units of penicillin per ml and 100 μg of streptomycin per ml at 37° C. in a humidified incubator containing 7% CO2.
For the fusion assay, serial dilutions between 1:2 and 1:2^8 of a selected KY compound, 1 mg/ml in PBS were made in a 96 well round bottom plate. The diluted KY compound was transferred to a 96 well flat-bottom plate. To each well was added 25 μg chronically infected H9 cells (at 2×10^6, cells/ml), or cells chronically infected with RF-II strain HIV, followed by incubation at 37° C. for 45 minutes. To each well was then added 25 μl VB cells (about 5×10^4 cells), and the cells and virus isolates were cocultured for 18 hours in a humid 5% CO2 atmosphere.

[13] = system: HSV-1 and HSV-2; assay: Viral yield inhibition, HeLa cells, plaque count on Vero cells; conditions: virus yield or CPE assays
Method: The ability of selected naphthalene-subunit compounds to inhibit HSV-1 and HSV-2 viral yields at selected drug concentrations up to 10 μg/ml was assessed in the viral inhibition assay described in Example 7. Briefly, cultured Hela cells were exposed to serially diluted KY compound and virus, allowed to grow for 24 hours, then freeze/thawed 3 times to release virus particles. Vero cells were infected serial dilutions of the viral lysates were assayed for plaque counts as described in Example 6.
1×10^6 HeLa S3 were plated in 25 T flasks in 5 ml RPMI-1640+5% FCS+P/S. 24 hours later, the medium was aspirated and replaced with 6×10^6 PFU HSV-1 or HSV-2, and serial dilutions of selected KY compounds, at 10, 5, 2.5, 1.25, and 0.625 μg/ml drug. After growth at 37° C. for 24 hours in 2 ml of RPMI-1640 containing 2% FCS and P/S, the cells were frozen at -70° C. until the time for titration. The cells were freeze/thawed 3 times to release virus from the cells, and serially diluted 10 fold.
1×10^5 Vero cells were plated in each well of 24 well multi-dish in 1 ml RPMI-1640+5% FCS+P/S+0.1% methylcellulose (15 cps). On the second day, after removal of the medium, the 10 fold serially diluted virus in 100 μl was added in duplicate. […] The plaques formed were counted and the titer was calculated from the fold of dilutions.

[14] = system: coagulation; assay: Anti-coagulant activity after oral and intravenous administration; format: in vivo; conditions: protamine sulfate intravenous
Method: One of the considerations in the administering the composition, particularly when the drug is administered parenterally or orally, is systemic side effects. Studies conducted in support of the present invention indicate that the calix(n)arene compound, particularly the sulfonic acid compound, may show anti-coagulant activity after oral and intravenous administration. […] The protamine administration is timed to correspond to highest blood levels of the calix(n)arene compounds. In a typical method, a dose of protamine equivalent to about 1 mg per 100 heparin anticoagulant units is administered intravenously simultaneously with IV administration of the calix(n)arene, or 1-2 hours after oral administration of the macrocyclic drug. It is generally recommended that protamine be infused slowly (i.e., not more than a total of 50 mg/10 minutes).

## Nc1nc2c(ncn2COCCO)c(=O)[nH]1 [ACV, acyclovir, reference compound]
[1]
  maximum decrease in viral yield, either drug alone: less than three
[2]
  IC90: 14 µM
[3]
  IC90: ~10 µM
[4]
  IC90: 100 µM
[5]
  IC90: 380 µM
[6]
  IC90: > 100 µM
[7]; +6 h
  Lesion score Area Under Curve: 2.7
  Mean Peak lesion score: 0.6
[7]; +48 h
  Lesion score Area Under Curve: 45.8
  Mean Peak lesion score: 3.8
[8]; 5%, 24 h
  % Animals with Lesions: 37.5%
  Lesion Score (AUC): 11.7
  Mean Peak lesion score: 1.5

## O=S(=O)(O)c1cc2c(O)c(c1)Cc1cc(S(=O)(=O)O)cc(c1O)Cc1cc(S(=O)(=O)O)cc(c1O)Cc1cc(S(=O)(=O)O)cc(c1O)Cc1cc(S(=O)(=O)O)cc(c1O)Cc1cc(S(=O)(=O)O)cc(c1O)Cc1cc(S(=O)(=O)O)cc(c1O)Cc1cc(S(=O)(=O)O)cc(c1O)C2 [Y-1]
[9]; Human alphaherpesvirus 1, Vero, plaque reduction, Vero cells
  IC50: 7 µg/mL (≈ 4.7 µM)
[9]; plaque reduction HSV-1 and HSV-2
  relative anti-HSV activity, in words: somewhat more active than the corresponding n=4 and n=6 compounds
[10]
  IC50: 7.2 µg/mL (≈ 4.83 µM)
[1]
  maximum decrease in viral yield, either drug alone: less than three
[11]; 12.5 μg/50 μl topical
  ocular disease, 12.5 μg/50 μl: most effective ocular therapy
[11]; 18.75 μg/50 μl topical
  corneal epithelial HSV-1 induced disease, 18.75 μg/50 μl: effective in reducing the development of corneal epithelial HSV-1induced disease
[11]; 18.75 μg/50 μl, days 6 and 7
  toxicity to corneal epithelial surface, conjunctiva, iris and stroma: somewhat toxic to the corneal epithelial surface and to the conjunctiva, iris and stroma
[11]; all concentrations, topical
  ocular disease severity versus placebo: effective in reducing the development of HSV-1 induced ocular disease
[11]; day 7
  viral titer in epithelial scrapings: dose-dependent reduction in viral titer
[12]; HXB strain
  relative activity against HXB strain, in words: comparable activities against the HXB strain
[12]; Human immunodeficiency virus 1, read-out: HIV-HXB IC50
  IC50: 16 µg/mL (≈ 10.7 µM)
[13]
  ED90 concentration: 12.5 μg/50 μl
[8]; 2% or 6%, 6 h treatment
  lesions versus placebo, in words: reduced numbers of animals exhibiting lesions, decreased mean lesion scores and decreased peak lesion score
[8]; 2%, 6 h
  % Animals with Lesions: 66.7%
  Lesion Score (AUC): 16.9
  Mean Peak lesion score: 1.8
[8]; 2%, 24 h
  % Animals with Lesions: 60%
  Lesion Score (AUC): 22.0
  Mean Peak lesion score: 2.3
[8]; 6%, 6 h
  % Animals with Lesions: 30%
  Lesion Score (AUC): 8.1
  Mean Peak lesion score: 1.2
[8]; 6%, 24 h
  % Animals with Lesions: 40%
  Lesion Score (AUC): 14.7
  Mean Peak lesion score: 1.8
[8]; 24 hours post-infection, 6% KY-1 or Y-1, 2% KY-1
  lesions, in words: reduced numbers of lesion bearing animals and reduced severity of lesions

## protamine sulfate
[14]
  blocking of anticoagulant effect of calix(n)arene: effectively blocked
